Experimental data reported in US9458172B2, “Pyridinyl and pyrimidinyl sulfoxide and sulfone derivatives” (priority 2012, dated 2016).
Like-named read-outs stand apart in the source and are kept apart here.

Key:
NAMPT = NAMPT (Homo sapiens (Human), UniProt P43490); assay: Biochemical Inhibition Assay (NAMPT enzymatic reaction, NMN quantified by mass spectrometry); details: 33 nM recombinant His-tagged NAMPT, 1 μM NAM, 30 min at rt
Protocol: Assay 1: Biochemical Inhibition Assay
NAMPT protein purification. Recombinant His-tagged NAMPT was produced in E. coli cells, purified over a Ni column, and further purified over a size-exclusion column by XTAL Biostructures.
The NAMPT Enzymatic Reaction. The NAMPT enzymatic reactions were carried out in Buffer A (50 mM Hepes pH 7.5, 50 mM NaCl, 5 mM MgCl2, and 1 mM THP) in 96-well V-bottom plates. The compound titrations were performed in a separate dilution plate by serially diluting the compounds in DMSO to make a 100× stock. […] The compound and enzyme mixture was incubated for 15 min at rt, then 10 μL of 10× substrate and co-factors in Buffer A were added to the test well to make a final concentration of 1 μM NAM, […] 5-Phospho-D-ribose 1-diphosphate (PRPP), and 2.5 mM Adenosine 5′-triphosphate (ATP). The reaction was allowed to proceed for 30 min at rt, then was quenched with the addition of 11 μL of a solution of formic acid and L-Cystathionine to make a final concentration of 1% formic acid and 10 μM L-Cystathionine. Background and signal strength was determined by addition (or non-addition) of a serial dilution of NMN to a pre-quenched enzyme and cofactor mix.
Quantification of NMN. A mass spectrometry-based assay was used to measure the NAMPT reaction product, β-nicotinamide mononucleotide (NMN), and the internal control (L-Cystathionine). NMN and L-Cystathionine were detected using the services of Biocius Lifesciences with the RapidFire system. In short, the NMN and L-Cystathionine were bound to a graphitic carbon cartridge in 0.1% formic acid, eluted in 30% acetonitrile buffer, and injected into a Sciex 4000 mass spectrometer. The components of the sample were ionized with electrospray ionization and the positive ions were detected. […] The fragments are quantified and the analyzed by the following method.
Determination of IC50 Values. First, the NMN signal was normalized to the L-Cystathionine signal by dividing the NMN signal by the L-Cystathionine signal for each well. The signal from the background wells were averaged and subtracted from the test plates.

A2780 cells = assay: In-Vitro Cell Proliferation Assay (SRB)
[1] = Homo sapiens, A2780, 72 h, read-out: Cell Proliferation (IC50)
[2] = Homo sapiens, A2780, 72 h, read-out: Cell Proliferation (IC50), A2780 cells, 72 h, sulforhodamine B

NAMPT, sequence (P43490 whole entry): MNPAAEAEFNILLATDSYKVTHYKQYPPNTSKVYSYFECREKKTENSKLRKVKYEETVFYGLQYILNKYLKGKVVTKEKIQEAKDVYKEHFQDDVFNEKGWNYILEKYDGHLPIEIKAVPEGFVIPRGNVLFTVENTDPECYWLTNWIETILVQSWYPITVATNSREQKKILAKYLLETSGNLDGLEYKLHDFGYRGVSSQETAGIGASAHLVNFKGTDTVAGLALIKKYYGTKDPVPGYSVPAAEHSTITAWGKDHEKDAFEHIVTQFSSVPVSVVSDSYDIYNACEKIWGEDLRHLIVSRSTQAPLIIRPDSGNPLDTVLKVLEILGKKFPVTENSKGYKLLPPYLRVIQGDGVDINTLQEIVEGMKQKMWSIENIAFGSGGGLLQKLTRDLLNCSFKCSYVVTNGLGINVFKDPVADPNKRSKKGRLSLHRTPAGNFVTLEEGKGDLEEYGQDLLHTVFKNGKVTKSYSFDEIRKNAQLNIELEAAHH

Row | Structure (SMILES) | IC50 (NAMPT) | IC50 (A2780 cells; [1]) | IC50 (A2780 cells; [2]) | IC50 (A2780 cells; read-out: Cell Proliferation (IC50), A2780 cells, 72 h, sulforhodamine B)
1 | O=C(NCc1ccc(S(=O)(=O)c2ccc(N3CCOCC3)cc2)cn1)c1cc2ccncc2s1 [Example 39, Thieno[2,3-c]pyridine-2-carboxylic acid [5-(4-morpholin-4-yl-benzenesulfonyl)-pyridin-2-ylmethyl]-amide] | 2.8 nM | – | 0.8 nM | –
2 | O=C(NCc1ccc([S+]([O-])C2CCN(CC(F)(F)F)CC2)cn1)c1cc2ccncc2o1 (stereo not drawn) [Example 118, N-[[5-[[1-(2,2,2-trifluoroethyl)-4-piperidyl]sulfinyl]-2-pyridyl]rnethyl]furo[2,3-c]pyridine-2-carboxamide] | 76.1 nM | – | – | 12.2 nM
3 | CCCn1cc(S(=O)(=O)c2ccc(CNC(=O)c3ccc4nccn4c3)nc2)cn1 [Example 43, Imidazo[1,2-a]pyridine-6-carboxylic acid [5-(1-propyl-1H-pyrazole-4-sulfonyl)-pyridin-2-ylmethyl]-amide] | 27.3 nM | 24.1 nM | – | –
4 | COc1cccc(S(=O)(=O)c2ccc(CNC(=O)c3cc4ccncc4o3)nc2)c1 [Example 32] | 6.1 nM | 9.1 nM | – | –
5 | CC(C)n1cc(S(=O)(=O)c2ccc(CNC(=O)N3Cc4ccncc4C3)nc2)cn1 [Example 80, 1,3-Dihydro-pyrrolo[3,4-c]pyridine-2-carboxylic acid [5-(1-isopropyl-1H-pyrazole-4-sulfonyl)-pyridin-2-ylmethyl]-amide] | 22.7 nM | 83.2 nM | – | –
6 | O=C(NCc1ccc(S(=O)(=O)c2cncc(C(F)(F)F)c2)cn1)c1cc2ccncc2o1 [Example 163, N-[[5-[[5-(trifluoromethyl)-3-pyridyl]sulfonyl]-2-pyridyl]methyl]furo[2,3-c]pyridine-2-carboxamide] | 49.5 nM | 25.3 nM | – | –
7 | O=C(NCc1ccc(S(=O)(=O)N2CCN(C3COC3)CC2)cn1)c1cc2ccncc2o1 [Example 141, N-[[5-[4-(oxetan-3-yl)piperazin-1-yl]sulfonyl-2-pyridyl]methyl]furo[2,3-c]pyridine-2-carboxamide] | 207 nM | 71.7 nM | – | –
8 | O=C(NCc1ncc(S(=O)(=O)c2ccccc2)cn1)c1cc2ccncc2s1 [Example 187, N-[[5-(benzenesulfonyl)pyrimidin-2-yl]methyl]thieno[2,3-c]pyridine-2-carboxamide] | 433 nM | 2000 nM | – | –
9 | O=C(NCc1ccc([S+]([O-])c2cccc(C(F)(F)F)c2)cn1)c1cc2ccncc2o1 (racemic) [Example 87, Furo[2,3-c]pyridine-2-carboxylic acid [5-(3-trifluoromethyl-benzenesulfinyl)-pyridin-2-ylmethyl]-amide (racemic)] | 17.7 nM | 15.2 nM | – | –
10 | COc1ccc(S(=O)(=O)c2ccc(CNC(=O)c3ccc4nccn4c3)nc2)cc1OC [Example 65, Imidazo[1,2-a]pyridine-6-carboxylic acid [5-(3,4-dimethoxy-benzenesulfonyl)-pyridin-2-ylmethyl]-amide] | 30.7 nM | 7 nM | – | –
11 | CN1CCN(c2ccc(S(=O)(=O)c3ccc(CNC(=O)c4ccc5nccn5c4)nc3)cn2)CC1 [Example 46, Imidazo[1,2-a]pyridine-6-carboxylic acid {5-[6-(4-methyl-piperazin-1-yl)-pyridine-3-sulfonyl]-pyridin-2-ylmethyl}-amide] | 6.9 nM | 1.6 nM | – | –
12 | CCS(=O)(=O)c1cccc(S(=O)(=O)c2ccc(CNC(=O)N3Cc4ccncc4C3)nc2)c1 [Example 114, N-[[5-(3-ethylsulfonylphenyl)sulfonyl-2-pyridyl]methyl]-1,3-dihydropyrrolo(3,4-c]pyridine-2-carboxamide] | 2.12 nM | 134 nM | – | –

The remaining compounds from weak to strong by IC50 (NAMPT), led by results:

Row | IC50 (NAMPT) | IC50 (A2780 cells; [1]) | IC50 (A2780 cells; [2]) | Structure (SMILES) | IC50 (A2780 cells; read-out: Cell Proliferation (IC50), A2780 cells, 72 h, sulforhodamine B)
13 | 619 nM | – | 1860 nM | O=C(NCc1ccc(S(=O)(=O)N2CCC(N3CCCC3)CC2)cn1)c1cnc2[nH]ncc2c1 [Example 149, N-[[5-[(4-pyrrolidin-1-yl-1-piperidyl)sulfonyl]-2-pyridyl]methyl]-1H-pyrazolo[3,4-b]pyridine-5-carboxamide] | –
14 | 354 nM | – | 2000 nM | Nc1ncc2c(n1)CN(C(=O)NCc1ccc(S(=O)(=O)c3cc(F)cc(F)c3)cn1)C2 [Example 86, 2-Amino-5,7-dihydro-pyrrolo[3,4-d]pyrimidine-6-carboxylic acid [5-(3,5-difluoro-benzenesulfonyl)-pyridin-2-ylmethyl]-amide] | –
15 | 217 nM | 64.4 nM | – | O=C(NCc1ccc(S(=O)(=O)c2cncc(C(F)(F)F)c2)cn1)c1cnc2[nH]ncc2c1 [Example 165, N-[[5-[[5-(trifluoromethyl)-3-pyridyl]sulfonyl]-2-pyridyl]methyl]-1H-pyrazolo[3,4-b]pyridine-5-carboxamide] | –
16 | 111 nM | 61.3 nM | – | O=C(NCc1ccc(S(=O)(=O)C2CCN(CC(F)(F)F)CC2)cn1)N1Cc2ccncc2C1 [Example 143, N-[[5-[[1-(2,2,2-trifluoroethyl)-4-piperidyl]sulfonyl]-2-pyridyl)methyl]-1,3-dihydropyrrolo[3,4-c]pyridine-2-carboxamide] | –
17 | 32 nM | – | 264 nM | CCn1cc(S(=O)(=O)c2ccc(CNC(=O)N3Cc4ccncc4C3)nc2)cn1 [Example 177, N-[[5-(1-ethylpyrazol-4-yl)sulfonyl-2-pyridyl]methyl]-1,3-dihydropyrrolo[3,4-c]pyridine-2-carboxamide] | –
18 | 23 nM | 6.7 nM | – | O=C(NCc1ccc(S(=O)(=O)c2cnc(N3CCOCC3)nc2)cn1)c1ccc2nccn2c1 [Example 167, N-[[5-(2-morpholinopyrimidin-5-yl)sulfonyl-2-pyridyl]methyl]imidazo[1,2-a]pyridine-6-carboxamide] | –
19 | 19.1 nM | 828 nM | – | O=C(NCc1ncc(S(=O)(=O)c2ccccc2)cn1)c1cnc2nccn2c1 [Example 12, Imidazo[1,2-a]pyrimidine-6-carboxylic acid (5-benzenesulfonyl-pyrimidin-2-ylmethyl)-amide] | –
20 | 17.6 nM | 16.5 nM | – | O=C(NCc1ncc(S(=O)(=O)c2cccc(C(F)(F)F)c2)cn1)c1ccc2nccn2c1 [Example 77, Imidazo[1,2-a]pyridine-6-carboxylic acid [5-(3-trifluoromethyl-benzenesulfonyl)-pyrimidin-2-ylmethyl]-amide] | –
21 | 17.3 nM | 76.5 nM | – | O=C(NCc1ccc(S(=O)(=O)c2cc(F)cc(F)c2)cn1)N1Cc2ccncc2C1 [Example 73, 1,3-Dihydro-pyrrolo[3,4-c]pyridine-2-carboxylic acid [5-(3,5-difluoro-benzenesulfonyl)-pyridin-2-ylmethyl]-amide] | –
22 | 16.2 nM | 25.5 nM | – | O=C(NCc1ccc([S+]([O-])c2cccc(OC(F)(F)F)c2)cn1)c1cc2ccncc2o1 (racemic) [Example 90, Furo[2,3-c]pyridine-2-carboxylic acid [5-(3-trifluoromethoxy-benzenesulfinyl)-pyridin-2-ylmethyl]-amide (racemic)] | –
23 | 15.5 nM | – | 8.92 nM | O=C(NCc1ccc([S+]([O-])c2cc(F)cc(F)c2)cn1)N1Cc2ccncc2C1 (stereo not drawn) [Example 116, N-[[5-(3,5-difluorophenyl)sulfinyl-2-pyridyl]methyl]-1,3-dihydropyrrolo[3,4-c]pyridine-2-carboxamide] | –
24 | 14.7 nM | 3.11 nM | – | COc1cc(OC)cc(S(=O)(=O)c2ccc(CNC(=O)c3cnc4[nH]ncc4c3)nc2)c1 [Example 139, N-[[5-(3,5-dimethoxyphenyl)sulfonyl-2-pyridyl]methyl]-1H-pyrazolo[3,4-b]pyridine-5-carboxamide] | –
25 | 11.1 nM | 76.6 nM | – | O=C(NCc1ccc(S(=O)(=O)c2cccc(F)c2)cn1)N1Cc2ccncc2C1 [Example 100, 1,3-Dihydro-pyrrolo[3,4-c]pyridine-2-carboxylic acid [5-(3-fluoro-benzenesulfonyl)-pyridin-2-ylmethyl]-amide] | –
26 | 5.4 nM | 25.9 nM | – | CN(C)c1ccc(S(=O)(=O)c2ccc(CNC(=O)c3cnc4nccn4c3)nc2)cn1 [Example 69, Imidazo[1,2-a]pyrimidine-6-carboxylic acid (5-(6-dimethylamino-pyridine-3-sulfonyl)-pyridin-2-ylmethyl]-amide] | –
27 | 2.8 nM | 2.8 nM | – | COc1ccc(S(=O)(=O)c2ccc(CNC(=O)c3cc4ccncc4o3)nc2)cc1OC [Example 66, Furo[2,3-c]pyridine-2-carboxylic acid [5-(3,4-dimethoxy-benzenesulfonyl)-pyridin-2-ylmethyl]-amide] | –
